Results on 14 compounds are retold here after PubChem BioAssay (NCI).

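Each compound was tested at five concentrations against cells in 96-well plates for 48 hours. At the TGI there is no net growth.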

Holding throughout (assay): NCI tumour cell line growth inhibition, 48 h
Assay [1] relates to UO-31 renal.
The subject of assay [2] is ACHN renal.
The test system of assay [3] is BT-549 breast.
Assay [4] concerns OVCAR-5 ovarian.
Assay [5] relates to MCF7 breast.
Assay [6] relates to HS 578T breast.
Assay [7] concerns K-562 leukemia.
For assay [8], the system named is SK-MEL-28 melanoma.
In assay [9] the test system is HCT-15 colon.
In assay [10] the test system is CAKI-1 renal.
The subject of assay [11] is SK-MEL-5 melanoma.
Assay [12] deals with M14 melanoma.
The test system of assay [13] is SF-295 CNS.
Assay [14] deals with IGROV1 ovarian.
Assay [15] has as its system 786-0 renal.
Assay [16] deals with SK-MEL-2 melanoma.
Assay [17] has as its system HCT-116 colon.
Assay [18] deals with LOX IMVI melanoma.
Assay [19] has as its system OVCAR-4 ovarian.
The subject of assay [20] is SNB-19 CNS.

For `O=CNc1ccccc1OCCOc1ccccc1NC=O`, the TGI in assay [1], in assay [2], in assay [3], in [4], in [5] and in [6] was greater than 100 µM throughout. The TGI in [7], in [8], in assay [9], in [10], in assay [11] and in assay [12] was greater than 100 µM in each case. Moreover, the TGI in assay [13], in [14], in assay [15], in assay [16], in assay [17] and in assay [18] was greater than 100 µM in each case. The TGI in assay [19] and in assay [20] was greater than 100 µM throughout.

On to `CN(N=O)c1nc2c(C(N)=O)ncn2s1`, for which the TGI in [1], in [2], in assay [3], in [4], in [5] and in assay [6] was greater than 100 µM each time. For the same compound, the TGI in assay [7], in [8], in assay [9], in assay [10], in assay [11] and in assay [12] was greater than 100 µM throughout. Further, the TGI in assay [13], in [14], in assay [15], in assay [16], in assay [17] and in [18] was greater than 100 µM in each case. Besides, the TGI in assay [19] and in assay [20] was greater than 100 µM in each case.

In the case of `COc1cc2cc(C(=O)N3CC(CCl)c4ccc([N+](C)(C)Cc5ccccc5[N+](=O)[O-])cc43)[nH]c2c(OC)c1OC` (configuration not stated), the TGI in assay [1] was 5.17 µM; in [2], greater than 100 µM; in assay [3], 6.29 µM; in assay [4] it was greater than 31.3 µM; in assay [5] it was greater than 100 µM; in [6], 11.7 µM. The TGI in assay [7] is 12.5 µM; in assay [8] it was 11.4 µM; in [9], greater than 100 µM; in assay [10], 14.5 µM; in assay [11], 3.3 µM; in assay [12], 19 µM. Besides, the TGI in assay [13] was 36.5 µM; in assay [14] it was 17.7 µM; in [15] it was greater than 36.3 µM; in assay [16] it was 4.44 µM; in assay [17] it was greater than 100 µM; in assay [18] it was 17.1 µM. For the same compound, the results for the TGI in assay [19] and in [20] were 12.9 µM and 9.76 µM, respectively.

Take `CC(=O)Nc1cccc(N2C(=O)/C(=C\c3cccc(Oc4ccccc4)c3)SC2c2ccccc2)c1` (configuration not stated): the TGI in [1], in assay [2], in assay [3], in assay [4], in assay [5] and in assay [6] was greater than 100 µM in each case. In addition, the TGI in assay [7], in assay [8], in [9], in assay [10], in [11] and in [12] was greater than 100 µM in each case. Moreover, the TGI in [13], in assay [15], in [16], in assay [17], in [18] and in [19] was greater than 100 µM in each case. The same compound showed a TGI in assay [20] greater than 100 µM.

`O=C(Nc1ccccc1)OCCN=C1c2ccccc2CCc2ccccc21`: the TGI in [1] worked out at 43.7 µM; in assay [2] it was 70.1 µM; in [3], 42.1 µM; in assay [4], 63.5 µM; in [5], 57.8 µM; in assay [6] it was 51.5 µM. The TGI is 60.9 µM in assay [7]; 28.7 µM in assay [8]; 48.2 µM in [9]; 88 µM in assay [10]; 27.3 µM in [11]; 45.1 µM in assay [12]. The TGI in assay [13] is 34.1 µM; in [14], 58.2 µM; in assay [15], greater than 100 µM; in [16], 30.3 µM; in assay [17], 30 µM; in assay [18], 49.4 µM. The TGI in assay [19] was greater than 100 µM; in assay [20], 43.7 µM.

Take `C=CCN1CCC(c2cc(C(=O)OCC)[nH]c2-c2cc(C)no2)C1=O` (configuration not stated): the TGI in [1], in [3], in assay [4], in [5], in assay [6] and in [7] was greater than 100 µM each time. The TGI in assay [8], in assay [9], in assay [10], in [11], in assay [12] and in assay [13] was greater than 100 µM throughout. Besides, the TGI in [14], in assay [15], in assay [16], in assay [17], in [18] and in [19] was greater than 100 µM each time. This compound yielded a TGI in assay [20] greater than 100 µM.

As for `COC(=O)/C=C/[C@@H]1[C@H](C)N1S(=O)(=O)c1ccc(C)cc1` (some centres not stated), the TGI in [2], in assay [3], in assay [4], in assay [5], in assay [6] and in assay [7] was greater than 100 µM each time. The TGI in assay [8], in [9], in assay [10], in assay [11], in assay [12] and in assay [13] was greater than 100 µM throughout. For the same compound, the TGI in assay [14], in assay [15], in [16], in assay [17], in assay [18] and in assay [19] was greater than 100 µM in each case. In assay [20], this compound had a TGI greater than 100 µM.

Take `C[C@@H]1CC[C@H]2[C@H](C)C(OC3O[C@@H]4O[C@@]5(C)CC[C@H]6[C@H](C)CC[C@@H]([C@@H]3C)[C@@]46O5)O[C@@H]3O[C@@]4(C)CC[C@@H]1[C@]32O4` (some centres not stated): the TGI in assay [2], in assay [3], in assay [4], in [5], in assay [6] and in assay [7] was greater than 100 µM throughout. Besides, the TGI in assay [8], in assay [9], in assay [10], in assay [11], in assay [12] and in assay [13] was greater than 100 µM throughout. Besides, the TGI in assay [15], in [16], in assay [17], in assay [18], in [19] and in assay [20] was greater than 100 µM each time.

Turning to `CC(=O)N1C(Nc2nccs2)CCN1c1ccccc1` (configuration not stated), the TGI in [2], in [3], in assay [4], in [5], in [6] and in assay [7] was greater than 10 µM each time. Further, the TGI in [8], in assay [9], in assay [10], in [11], in assay [12] and in assay [13] was greater than 10 µM in each case. Also, the TGI in [14], in [15], in [16], in [17], in [18] and in assay [19] was greater than 10 µM in each case. In assay [20], this compound yielded a TGI greater than 10 µM.

As to `CCOc1ccc(NC(=O)C(=O)Nn2c(N)nnc2N)cc1`, the TGI in assay [1], in assay [2], in [3], in [4], in assay [5] and in assay [6] was greater than 100 µM throughout. For the same compound, the TGI in assay [7], in assay [8], in [9], in assay [10], in assay [11] and in assay [12] was greater than 100 µM each time. Also, the TGI in assay [13], in [14], in assay [15], in [16], in [17] and in assay [18] was greater than 100 µM each time. The compound also showed a TGI in assay [19] greater than 100 µM.

`COc1cc([C@@H]2c3cc4c(cc3[C@@H](Nc3ccc(Cl)cc3C(=O)c3ccccc3)[C@H]3COC(=O)[C@H]23)OCO4)cc(OC)c1OC`: the TGI in [1] was greater than 100 µM; in assay [2], greater than 100 µM; in [3], greater than 100 µM; in [4], greater than 100 µM; in assay [5] it was greater than 100 µM; in assay [6], 0.926 µM. Besides, the TGI is greater than 100 µM in [7]; 78.4 µM in [8]; greater than 100 µM in [10]; 16 µM in assay [11]; greater than 100 µM in assay [12]; 7.6 µM in assay [14]. For the same compound, the TGI in assay [15] was greater than 100 µM; in assay [16], greater than 100 µM; in [17] it was greater than 100 µM; in assay [18], greater than 100 µM; in assay [19], greater than 100 µM; in assay [20] it was greater than 85.1 µM.

For `COc1cc(OC)c2c(=O)c3cccc(C)c3n(C)c2c1`, the TGI was greater than 100 µM in assay [2]; greater than 100 µM in assay [3]; greater than 100 µM in assay [4]; greater than 100 µM in [5]; greater than 100 µM in assay [6]; 59.4 µM in [7]. Besides, the TGI was greater than 100 µM in assay [8]; greater than 100 µM in assay [9]; greater than 100 µM in [10]; 60.6 µM in [11]; greater than 100 µM in [12]; greater than 100 µM in [13]. Further, the TGI in assay [14], in assay [15], in assay [16], in [17], in assay [18] and in assay [19] was greater than 100 µM throughout. This compound also gave a TGI in assay [20] greater than 100 µM.

In the case of `CC(C)(O)c1cc2c(cc1C(C)(C)O)-c1ccccc1-2`, the TGI in assay [2], in [3], in assay [4], in [5], in [6] and in [7] was greater than 100 µM each time. The TGI in assay [8], in assay [9], in [10], in [11], in [12] and in assay [13] was greater than 100 µM each time. Moreover, the TGI in assay [14], in assay [15], in assay [16], in assay [18], in assay [19] and in assay [20] was greater than 100 µM in each case.

Consider `NC(=O)[N+](=CC(=S)Nc1ccccc1Cl)C(N)=O`, for which the TGI in [1], in assay [2], in [3], in assay [4], in [5] and in assay [6] was greater than 100 µM in each case. Further, the TGI in assay [7], in [9], in assay [10], in [11], in [12] and in assay [13] was greater than 100 µM each time. Moreover, the TGI in assay [14], in assay [15], in assay [16], in assay [17], in [18] and in assay [19] was greater than 100 µM throughout. The TGI in assay [20] is greater than 100 µM.
